Reference: US9115159B2, “Phosphate compounds, a process for their preparation and pharmaceutical compositions containing them” (LES LABORATOIRES SERVIER, priority 2013, dated 2015)
Where two headings read alike, the source gives them in different places.

What was measured:
[1] = Solubility in aqueous medium buffered to physiological pH (phosphate 0.33M, pH 7.4); format: physicochemical
Description: The solubilities of the compounds were also measured in a medium buffered to physiological pH (cf. Table 3).

human Caco-2 cells = assay: In vitro test on human Caco-2 cells, cellular transport A to B; format: in vitro ADME; details: 120 minutes; for Yield (experiment yield), the drug after incubation of the prodrug / Fabs (predicted absorbed fraction in humans), the drug after incubation of the prodrug / Yield (experiment yield), compound measured: the prodrug itself / Papp, compound measured: the prodrug itself: prodrug incubated; for Yield (experiment yield), the drug after incubation of the prodrug / Fabs (predicted absorbed fraction in humans), the drug after incubation of the prodrug: corresponding drug measured; for Yield (experiment yield), compound measured: the prodrug itself: total amount found at the end versus incubated; for Papp, compound measured: the prodrug itself: deposited apically at 1 or 3 μM
Description: (§1) The cellular transport from A to B (Apical to Basolateral) of the phosphate compounds of formula (I) and the compounds of formula (I′) (corresponding drugs) is studied in human Caco-2 cells. Each compound is deposited apically at 1 or 3 μM (in duplicate) and then incubated for 120 minutes.
(§2) Several samples are taken during the experiment; • apically: immediately after deposition (t=0) and at 120 minutes • basolaterally: at the end of the experiment (120 minutes)
(§3) The concentrations of the phosphate compound (prodrug) and/or of its hydroxylated homologue (drug) are determined by liquid chromatography coupled with mass spectrometric detection (LC-MS/MS). The limit of quantification for both entities is 2 ng/mL.
(§4) The apparent permeability (Papp) and the predicted absorbed fraction (Fabs) in humans are calculated for the prodrug, for the drug after incubation of the prodrug and for the drug after incubation of the drug (Hubatsch et al, Nat Protoc. 2007; 2(9), 2111-2119).
(§5) The experiment yield, which corresponds to the ratio (in percent) of the total amount of compound found at the end of the experiment versus that incubated, is also calculated.

[2] = Pharmacokinetic profile / in vivo conversion after oral administration to SCID mice (plasma, LC-MS/MS); parameters: species or system female SCID mice; details: aqueous formulation (1M sodium carbonate)
Description: The pharmacokinetic profile of the phosphate compounds of formula (I) is evaluated in a lipid formulation and in aqueous solution in female SCID mice. This is compared to the pharmacokinetic profile of compounds of formula (I′) in a lipid formulation. More specifically, 4-[{[3-(6-{[(3S)-3-(morpholin-4-ylmethyl)-3,4-dihydroisoquinolin-2(1H)-yl]-carbonyl}-1,3-benzodioxol-5-yl)-5,6,7,8-tetrahydroindolizin-1-yl]carbonyl}(phenyl)-amino]phenyl disodium phosphate (also referred to as the compound of Example 1) was tested and compared to N-(4-hydroxyphenyl)-3-{6-[((3S)-3-(4-morpholinylmethyl)-3,4-dihydro-2(1H)-isoquinolinyl)carbonyl]-1,3-benzodioxol-5-yl}-N-phenyl-5,6,7,8-tetrahydro-1-indolizine carboxamide (also referred to as the drug from Example 1).
The compound of Example 1 is prepared in a mixture of anhydrous ethanol/polyethylene glycol 300/water (10/40/50, v/v/v) intended for administration by the p.o. route. The study is carried out in 2 groups of SCID mice to which the compound of Example 1 is administered under the following conditions: • Group 1: 3 mg/kg p.o. (gavage, 10 mL/kg), • Group 2: 25 mg/kg p.o. (gavage, 10 mL/kg).
Blood samples are taken at the following points in time (3 samples per animal and 3 animals for each point in time): 0.25 hr, 0.5 hr, 1 hr, 2 hrs, 6 hrs and 24 hrs after oral administration.
The compound of Example 1 is also administered by the oral route in an aqueous medium to SCID mice, under the following conditions: • Group 1: 30 mg/kg p.o. dissolved in 1 mM sodium carbonate solution (gavage, 10 mL/kg), • Group 2: 100 mg/kg p.o. in water (gavage, 10 mL/kg).
Blood samples are taken at the following points in time (3 animals for each point in time and 1 sample per animal): 0.25 hr, 0.5 hr, 1 hr, 2 hrs, 4 hrs, 6 hrs and 24 hrs after oral administration.
For all formulations of the compound of Example 1, the blood thereby collected is centrifuged and the plasma is transferred to tubes containing 1M hydrochloric acid. The plasma concentrations of the phosphate compound (prodrug) and its hydroxylated homologue (drug) are determined simultaneously using a method of liquid chromatography coupled with mass spectrometric detection (TFC-LC-MS/MS). The limit of detection for both entities is 0.5 ng/mL.
The drug from Example 1 is prepared in a mixture of anhydrous ethanol/polyethylene glycol 300/water (10/40/50, v/v/v) intended for administration by the p.o. route. The study is carried out in several groups of SCID mice to which the drug from Example 1 is administered under the following conditions: • Group 1: 3 mg/kg p.o. (gavage, 10 mL/kg), • Group 2: 30 mg/kg p.o. (gavage, 10 mL/kg), • Group 3: 25 mg/kg p.o. (gavage, 10 mL/kg), • Group 4: 100 mg/kg p.o. (gavage, 10 mL/kg).
Blood samples are taken at the following points in time (3 animals for each point in time and 3 samples per animal for Groups 1-2 and 1 sample per animal for Groups 3 and 4): • p.o.: before administration and then 0.25 hr, 0.5 hr, 0.75 hr, 1 hr, 2 hrs, 4 hrs, 6 hrs, 8 hrs, 16 hrs and 24 hrs after oral administration at 3 and 30 mg/kg, • p.o.: 0.5 hr, 2 hrs, 6 hrs, 16 hrs and 24 hrs after oral administration at 25 mg/kg and 0.5 hr, 1 hr, 2 hrs, 6 hrs, 16 hrs, 30 hrs and 48 hrs after oral administration at 100 mg/kg.
The plasma from the blood samples collected after administration of the lipid formulations of the drug from the compound of Example 1 are analysed by liquid chromatography coupled with mass spectrometric detection. The limit of quantification of the drug from the compound of Example 1 is less than or equal to 0.5 ng/mL.
Non-compartmental pharmacokinetic analysis is carried out on the mean values of the plasma concentrations of the compounds tested. […]

[3] = In vitro test on human Caco-2 cells, cellular transport A to B; format: in vitro ADME; details: human, Caco-2, drug incubated and measured, A to B, 1 or 3 μM, read-out: Papp, the drug after incubation of the drug
Description: as §1, §2, §3, §4, §5

[4] = phosphate 0.33M, pH = 7.4, 10 μM
[5] = phosphate 0.33M, pH = 7.4, 20 μM
[6] = phosphate 0.33M, pH = 7.4, 50 μM
[7] = phosphate 0.33M, pH = 7.4, 100 μM
[8] = Example 25 administered 3 mg/kg p.o.
[9] = Example 25 administered 25 mg/kg p.o.
[10] = Example 20 administered 25 mg/kg p.o.

| SMILES | Solubility at 10 μM [1, 4] | Solubility at 20 μM [1, 5] | Solubility at 50 μM [1, 6] | Solubility at 100 μM [1, 7] | Yield (experiment yield), the drug after incubation of the prodrug (human Caco-2 cells) | Fabs (predicted absorbed fraction in humans), the drug after incubation of the prodrug (human Caco-2 cells; A to B, 1 or 3 μM) | Yield (experiment yield), compound measured: the prodrug itself (human Caco-2 cells) | further results |
| --- | --- | --- | --- | --- | --- | --- | --- | --- |
| C[C@@H]1Cc2ccccc2CN1C(=O)c1cc2c(cc1-c1cc(C(=O)N(c3ccncc3)c3ccc(O)cc3)c3ccccn13)OCO2 [Drug from Example 5, N-(4-Hydroxyphenyl)-3-(6-{[(3R)-3-methyl-3,4-dihydroisoquinolin-2(1H)-yl]-carbonyl}-1,3-benzodioxol-5-yl)-N-(pyridin-4-yl)indolizine-1-carboxamide] |  |  |  |  |  |  |  | Papp A→B at 120 min [3]: 0.7 ×10⁻⁶ cm/s; Yield (experiment yield), the drug after incubation of the drug (human Caco-2 cells; drug incubated and measured): Yield (%) = 34; Fabs (predicted absorbed fraction in humans), the drug after incubation of the drug (human Caco-2 cells; drug incubated and measured, A to B, 1 or 3 μM): Fabs (%) = 68 |
| Cc1c(N(C(=O)c2cc(-c3cc(Cl)ccc3C(=O)N3Cc4ccccc4C[C@H]3CN3CCOCC3)n(C)c2C)c2ccc(OP(=O)([O-])[O-])cc2)cc(C#N)n1C.[Na+].[Na+] [Example 20, 4-[{[5-(5-Chloro-2-{[(3S)-3-(morpholin-4-ylmethyl)-3,4-dihydroisoquinolin-2(1H)-yl]carbonyl}phenyl)-1,2-dimethyl-1H-pyrrol-3-yl]carbonyl}(5-cyano-1,2-dimethyl-1H-pyrrol-3-yl)amino]phenyl disodium phosphate] | Soluble | Soluble | Soluble | Soluble | Yield (%) = 100 | Fabs (%) = 16 | Yield (%) = 0.94 | Cmax, compound measured: Example 20 ([2]; Example 20 administered 3 mg/kg p.o., BLQ: below the limit of quantification): Cmax (ng/mL) = BLQ; AUCt, compound measured: Example 20 [2, 10]: AUCt (ng · h/mL) = 106; Cmax, compound measured: Example 20 [2, 10]: Cmax (ng/mL) = 127; Tmax, compound measured: Example 20 [2, 10]: Tmax (h) = 0.25 |
| [2H]C([2H])([2H])n1cc(N(C(=O)c2cc(-c3cc(Cl)ccc3C(=O)N3Cc4ccccc4C[C@H]3CN3CCOCC3)n(C)c2C)c2ccc(OP(=O)([O-])[O-])cc2)cn1.[Na+].[Na+] [Example 19, 4-({[5-(5-Chloro-2-{[(3S)-3-(morpholin-4-ylmethyl)-3,4-dihydroisoquinolin-2(1H)-yl]carbonyl}phenyl)-1,2-dimethyl-1H-pyrrol-3-yl]carbonyl}[1-(trideuteriomethyl)-1H-pyrazol-4-yl]amino)phenyl disodium phosphate] |  |  |  |  |  |  |  | Solubility at 10 μM [1]: Soluble; Solubility at 20 μM [1]: Soluble; Solubility at 50 μM [1]: Soluble; Solubility at 100 μM [1]: Soluble |

The next lines start with results.

| Solubility at 10 μM [1, 4] | Solubility at 20 μM [1, 5] | Solubility at 50 μM [1, 6] | Solubility at 100 μM [1, 7] | Yield (experiment yield), the drug after incubation of the prodrug (human Caco-2 cells) | Fabs (predicted absorbed fraction in humans), the drug after incubation of the prodrug (human Caco-2 cells; A to B, 1 or 3 μM) | Yield (experiment yield), compound measured: the prodrug itself (human Caco-2 cells) | SMILES | further results |
| --- | --- | --- | --- | --- | --- | --- | --- | --- |
| Soluble | Soluble | Soluble | Soluble | Yield (%) = 48 | Fabs (%) = 20 | Yield (%) = 33 | Cc1c(N(C(=O)c2cc(-c3cc(F)ccc3C(=O)N3Cc4ccccc4C[C@H]3CN3CCOCC3)n(C)c2C)c2ccc(OP(=O)([O-])[O-])cc2)cc(C#N)n1C.[Na+].[Na+] [Example 25, 4-[(5-Cyano-1,2-dimethyl-1H-pyrrol-3-yl){[5-(5-fluoro-2-{[(3S)-3-(morpholin-4-ylmethyl)-3,4-dihydroisoquinolin-2(1H)-yl]carbonyl}phenyl)-1,2-dimethyl-1H-pyrrol-3-yl]carbonyl}amino]phenyl disodium phosphate] | AUCt, compound measured: Example 25 [2, 8]: AUCt (ng · h/mL) = 14; Cmax, compound measured: Example 25 [2, 8]: Cmax (ng/mL) = 17; Tmax, compound measured: Example 25 [2, 8]: Tmax (h) = 1.0; AUCt, compound measured: Example 25 [2, 9]: AUCt (ng · h/mL) = 114; Cmax, compound measured: Example 25 [2, 9]: Cmax (ng/mL) = 106; Tmax, compound measured: Example 25 [2, 9]: Tmax (h) = 1.0 |
| Soluble | Soluble | Soluble | Insoluble |  |  |  | [2H]C([2H])([2H])n1cc(N(C(=O)c2cc(-c3cc(Cl)ccc3C(=O)N3Cc4ccccc4C[C@H]3CN3CCOCC3)n(C)c2C)c2ccc(O)cc2)cn1 [Drug from Example 19, 5-(5-Chloro-2-{[(3S)-3-(morpholin-4-ylmethyl)-3,4-dihydroisoquinolin-2(1H)-yl]carbonyl}phenyl)-N-(4-hydroxyphenyl)-1,2-dimethyl-N-[1-(trideuteriomethyl)-1H-pyrazol-4-yl]-1H-pyrrole-3-carboxamide] |  |
|  |  |  |  | Yield (%) = 38 | Fabs (%) = 69 | Yield (%) = 1.3 | C[C@@H]1Cc2ccccc2CN1C(=O)c1cc2c(cc1-c1cc(C(=O)N(c3ccc(OP(=O)([O-])[O-])cc3)c3cnc4c(ccn4C)c3)c3ccccn13)OCO2.[Na+].[Na+] [Example 4, 4-[{[3-(6-{[(3R)-3-Methyl-3,4-dihydroisoquinolin-2(1H)-yl]carbonyl}-1,3-benzodioxol-5-yl)indolizin-1-yl]carbonyl}(1-methyl-1H-pyrrolo[2,3-b]pyridin-5-yl)amino]phenyl disodium phosphate] | Papp, compound measured: the prodrug itself (human Caco-2 cells; A to B): Papp (10^−6 cm/s) = 0.33 |
|  |  |  |  | Yield (%) = 78 | Fabs (%) = 86 | Yield (%) = 1.2 | C[C@@H]1Cc2ccccc2CN1C(=O)c1cc2c(cc1-c1cc(C(=O)N(c3ccncc3)c3ccc(OP(=O)([O-])[O-])cc3)c3ccccn13)OCO2.[Na+].[Na+] [Example 5, 4-[{[3-(6-{[(3R)-3-Methyl-3,4-dihydroisoquinolin-2(1H)-yl]carbonyl}-1,3-benzodioxol-5-yl)indolizin-1-yl]carbonyl}(pyridin-4-yl)amino]phenyl disodium phosphate] | Papp, compound measured: the prodrug itself (human Caco-2 cells; A to B): Papp (10^−6 cm/s) = 0.26 |
